Results: PubChem BioAssay (NCI)
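These data come from cells grown in 96-well plates and exposed to compound for 48 hours at five concentrations. TGI marks complete inhibition of growth.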 Where a SMILES comes first, the peptide text is derived from it. Bridges are numbered along the chain shown (N, C = ends). [ ]: non-standard residue; d: D form. Aib = CC(C)(N)C(=O)O; βAla = NCCC(=O)O

Legend:
Experiment in all cases: DTP human tumour cell line panel, 48 h
[1] = system: MDA-N
[2] = system: A549 NSCLC
[3] = system: HT29 colon
[4] = system: U251 CNS
[5] = system: ACHN renal
[6] = system: M14 melanoma
[7] = system: CCRF-CEM leukemia
[8] = system: SK-MEL-28 melanoma
[9] = system: NCI/ADR-RES ovarian
[10] = system: UACC-62 melanoma
[11] = system: SF-268 CNS
[12] = system: CAKI-1 renal
[13] = system: RXF 393 renal
[14] = system: K-562 leukemia
[15] = system: LOX IMVI melanoma
[16] = system: SR leukemia
[17] = system: OVCAR-5 ovarian

Row | Compound | TGI [1] [µM] | TGI [2] [µM] | TGI [3] [µM] | TGI [4] [µM] | TGI [5] [µM] | TGI [6] [µM] | TGI [7] [µM] | TGI [8] [µM] | TGI [9] [µM] | TGI [10] [µM] | TGI [11] [µM] | TGI [12] [µM] | TGI [13] [µM] | TGI [14] [µM] | TGI [15] [µM] | TGI [16] [µM] | TGI [17] [µM]
1 | Cc1[nH]c(=O)nc2nc3cc(Cl)cc(Cl)c3c(NC(C)(CO)CO)c12 | > 100 | > 100 | > 100 | 28.8 | > 100 | > 100 | > 100 | > 100 | > 100 | > 100 | > 100 | > 100 | > 100 | > 100 | > 100 | – | –
2 | COc1cccc2c1c1ccc3c(c1n2C)C(=O)C=CC3=O | – | > 100 | 12.6 | > 100 | 28.6 | 27.7 | > 100 | 33.4 | – | 31.2 | 33.6 | 11.6 | – | > 100 | 32.2 | 6.65 | > 100
3 | COc1ccc(CNc2cnc3cc(N)ccc3n2)cc1 | – | > 100 | > 100 | > 100 | > 100 | > 100 | > 100 | > 100 | – | > 100 | > 100 | – | > 100 | > 100 | > 100 | > 100 | > 100
4 | O=C1C2C(C(=O)N1c1ccccc1)C1(c3ccccc3)CCC2(C(=O)c2ccccc2)O1 (stereo not drawn) | > 10 | > 10 | > 10 | > 10 | > 10 | > 10 | > 10 | > 10 | > 10 | > 10 | > 10 | > 10 | > 10 | – | > 10 | – | > 10
5 | COC(=O)[C@]12CC3C=CC1N(C3)C(CBr)c1c2n(S(=O)(=O)c2ccccc2)c2ccccc12 (stereo partly drawn) | > 100 | > 100 | > 100 | > 100 | > 100 | > 100 | > 100 | > 100 | > 100 | > 100 | – | > 100 | > 100 | 0.314 | > 100 | – | > 100
6 | CC1=NN(c2nc(N)nc(CN3CCOCC3)n2)C(C)(C)C1 | – | > 100 | > 100 | > 100 | > 100 | > 100 | 90.8 | > 100 | > 100 | > 100 | > 100 | 40.1 | > 100 | > 100 | 28.5 | > 100 | > 100
7 | CCOCCOCCOCc1nc(C#N)c(N)o1 | – | > 100 | > 100 | > 100 | > 100 | > 100 | > 100 | > 100 | > 100 | > 100 | > 100 | > 100 | > 100 | > 100 | > 100 | > 100 | > 100
8 | O=c1oc2ccc3ccccc3c2cc1-c1nnc(Nc2ccccc2)s1 | – | 59 | > 100 | 21.3 | 27.2 | > 100 | – | – | > 100 | 53.9 | > 100 | > 100 | 29.7 | > 100 | – | 81.7 | > 100
9 | CC1(C)NC(=O)C(NC(=O)C(N)CC(=O)O)CCCCNC(=O)CCNC1=O (stereo not drawn) (H-DK[Aib][βAla]; lactam 2-C; configuration not given here) | > 100 | > 100 | > 100 | > 100 | > 100 | > 100 | > 100 | > 100 | > 100 | > 100 | > 100 | > 100 | > 100 | > 100 | > 100 | – | > 100
10 | Cc1ccc(O)c(C(c2cccc(C(c3cc(C)ccc3O)c3cc(C)ccc3O)c2)c2cc(C)ccc2O)c1 | 3.35 | 4 | 3.16 | 3.32 | 3.13 | 3.45 | – | 3.46 | 7.66 | 3.51 | 3.33 | 3.04 | 3.2 | 3.37 | – | 7.55 | 3.15
11 | C=C(C)C12CC3CC(/C(=N/O)C(C1)/C3=N\O)[C@@]2(C)O (stereo partly drawn) | – | > 100 | > 100 | > 100 | > 100 | > 100 | > 100 | > 100 | – | > 100 | > 100 | > 100 | > 100 | > 100 | > 100 | > 100 | > 100
12 | CC(/C=C/C(=O)NO)=C\C(C)C(=O)c1ccc(N(C)C)cc1 (stereo not drawn) | 11.5 | 0.0814 | > 100 | 0.0354 | 0.0942 | 0.971 | – | 14.8 | – | 0.063 | 0.195 | 0.0863 | 0.104 | – | – | – | 4.6
13 | COc1ccc(C(=O)C#Cc2cn(C3CC(O)C(CO)O3)c(=O)[nH]c2=O)cc1 (stereo not drawn) | > 100 | > 100 | > 100 | > 100 | > 100 | 75 | > 10 | 50.5 | > 100 | > 100 | > 100 | > 100 | > 100 | > 100 | – | – | –
14 | C[C@H](C1CC(C)(O)C(C)(O)C(O)O1)[C@H]1CC[C@H]2[C@@H]3[C@@H]4O[C@@H]4[C@@]4(O)CC=CC(=O)[C@]4(C)[C@H]3CC[C@]12C (stereo partly drawn) | > 50 | > 50 | > 50 | > 50 | > 50 | > 50 | > 50 | > 50 | > 50 | > 50 | > 50 | > 50 | > 50 | > 50 | > 50 | – | > 50
15 | O=c1nc2n3c4c(cccc4nc-2c(=O)[nH]1)CCC3 | > 100 | > 100 | > 100 | > 100 | > 100 | > 100 | > 100 | > 100 | > 100 | > 100 | > 100 | > 100 | > 100 | > 100 | > 100 | – | > 100
16 | O=C(C=P(c1ccccc1)(c1ccccc1)c1ccccc1)c1ccc(-c2cccs2)cc1 | 11.7 | 11.6 | 13.7 | 14.7 | 19.8 | 7.75 | 22.1 | 15.7 | 23.1 | 10.7 | 27.1 | 19.6 | 15.4 | 15.9 | 19.6 | – | 17.7
17 | COc1cc(C2C(Cl)C(=O)N2NC(=O)Cc2ccccc2)cc(Br)c1O (stereo not drawn) | – | > 100 | > 100 | > 100 | > 100 | > 100 | > 100 | > 100 | – | > 100 | > 100 | > 100 | > 100 | > 100 | > 100 | > 100 | > 100
18 | OC12c3ccccc3C1CCCCC2N1CCCC1 (stereo not drawn) | – | > 100 | > 100 | > 100 | > 100 | > 100 | > 100 | > 100 | – | > 100 | > 100 | – | > 100 | – | > 100 | > 100 | –
19 | CC(C)(O)C(O)COc1c2c(cc3oc(=O)ccc13)OCO2 (stereo not drawn) | – | > 100 | > 100 | > 100 | > 100 | > 100 | > 100 | > 100 | – | > 100 | > 100 | > 100 | > 100 | > 100 | > 100 | > 100 | > 100
20 | CC1CC(N)=C(C#N)C1(C#N)C#N (stereo not drawn) | > 100 | > 100 | > 100 | > 100 | > 100 | > 100 | – | – | > 100 | > 100 | > 100 | 59.7 | > 100 | > 100 | > 100 | – | > 100
21 | N#CC(c1ccccc1)N(CCCCCCN(C(=O)c1ccccc1)C(C#N)c1ccccc1)C(=O)c1ccccc1 (stereo not drawn) | > 100 | > 100 | > 100 | > 100 | > 100 | > 100 | > 100 | > 100 | 51.2 | 77.7 | > 100 | > 100 | > 100 | > 100 | > 100 | – | > 100
22 | Cc1ccc(C)n1-c1ccccc1C1C=Cn2c(=O)nnc3c(OC(C)C)c(OC(C)C)c(O)c1c32 (stereo not drawn) | > 100 | > 100 | 43.6 | > 100 | > 100 | > 100 | > 100 | 38.1 | > 100 | > 100 | > 100 | > 100 | 77.3 | > 100 | > 100 | – | > 100
23 | COc1cc2c(cc1OC)OC(c1c(OC)ccc(OC)c1O)CC2 (stereo not drawn) | – | > 100 | > 100 | > 100 | > 100 | > 100 | 77.8 | > 100 | > 100 | > 100 | > 100 | > 100 | > 100 | > 100 | > 100 | > 100 | > 100
24 | C=CC(=O)Nc1ccc(NC(=O)C=C)c2c1C(=O)c1ccccc1C2=O | > 100 | > 100 | > 100 | > 100 | > 100 | > 100 | – | > 100 | > 100 | 90.8 | – | – | – | 48.4 | 47.4 | > 100 | > 100
25 | COc1cc(/C=C2\C(=O)N(C(=O)Cc3ccccc3)N=C2C)cc(OC)c1OC | – | > 100 | > 100 | – | > 100 | > 100 | > 100 | > 100 | – | – | > 100 | > 100 | – | > 100 | > 100 | > 100 | > 100
26 | OC1(C(Sc2cc(C(F)(F)F)cc(C(F)(F)F)c2)Sc2cc(C(F)(F)F)cc(C(F)(F)F)c2)C=CCCC1 (stereo not drawn) | 8.16 | 6.1 | 7.24 | – | 5.77 | 6.53 | 6.39 | 9.12 | 10.1 | 7.79 | 8.81 | 6.33 | 4.77 | 5.42 | 5.9 | – | 6.6
27 | COc1ccccc1Nc1nc2c([nH]1)c(=O)n(C)c(=O)n2C | > 10 | > 10 | > 10 | – | – | > 10 | > 10 | > 10 | – | > 10 | > 10 | > 10 | > 10 | > 10 | > 10 | > 10 | –
28 | CN(C)C(C1=C(O)C(c2ccccc2)N(c2ccccc2)C1=O)N1CCOCC1 (stereo not drawn) | > 10 | > 10 | > 10 | > 10 | > 10 | > 10 | > 10 | > 10 | > 10 | > 10 | > 10 | > 10 | > 10 | > 10 | > 10 | – | > 10
29 | COc1ccc(C(c2ccccc2)(c2ccc(OC)cc2)N2C(=O)NC3C(CCCCC(=O)NCCCCCCOP(OCCC#N)N(C(C)C)C(C)C)SCC32)cc1 (stereo not drawn) | – | 41.8 | 31.7 | 28.5 | 29.9 | 34.2 | 25.6 | 29 | – | 27.4 | 30.6 | – | 24.2 | 32.2 | 24 | 27.2 | –
30 | FC1(F)[Se]C2C3CCC(C3)C2C1(F)F (stereo not drawn) | > 100 | > 100 | – | > 100 | > 100 | > 100 | – | > 100 | > 100 | > 100 | > 100 | > 100 | > 100 | – | > 100 | > 100 | > 100
